Assays:
[1] = system: MDA-MB-231 cells (breast cancer); test: MTT antiproliferative assay, MDA-MB-231; type: cell-based, human; settings: Homo sapiens, 72 h, read-out: Growth inhibition (%) ± SEM; for inhibition at 10 µM: MDA-MB-231, 10 μM; for inhibition at 30 µM: MDA-MB-231, 30 μM
Method: (§1) The in vitro antiproliferative activities of the synthesized aminodiols 4–38 against a panel of different human cancer cell lines of gynecological origin, including cervical (SiHA and HeLa), breast (MCF7 and MDA-MB-231), and ovary (A2780) cancers were assayed by the MTT method. […] Cisplatin, a clinically applied anticancer agent, was used as a reference compound and the results are summarized in Figure 3 and Table S1 in Supporting Information. […] On the other hand, none of the prepared azole derivatives exerted relevant activity.
(§2) The growth-inhibitory effects of the gibberellic acid-based aminodiol derivatives were determined by a standard MTT (3-(4,5-dimethylthiazol-2-yl)-2,5-diphenyltetrazolium bromide) assay on a panel containing five cell lines, including Hela and Siha (cervical cancers); MDA-MB-231 and MCF-7 (breast cancers); and A2780 ovarian cancer cells. The most promising agents were additionally tested against NIH/3T3 mouse embryo fibroblast cells. All cell lines were purchased from the European Collection of Cell Cultures (Salisbury, UK) except SiHa, which was obtained from the American Tissue Culture Collection (Manassas, VA, USA). The cells were maintained in minimal essential medium supplemented with 10% fetal bovine serum, 1% non-essential amino acids, and 1% penicillin-streptomycin at 37 °C in a humidified atmosphere containing 5% CO2. All media and supplements were obtained from Lonza Group Ltd., (Basel, Switzerland). Cancer cells were seeded into 96-well plates (5000 cells/well), after an overnight incubation the test compound was added in 2 different concentrations (10 µM and 30 µM) and incubated for another 72 h under cell-culturing conditions. Then, 20 μL of 5 mg/mL MTT solution was added to each well and incubated for a further 4 h. The medium was removed, and the precipitated formazan crystals were dissolved in DMSO during 60 min of shaking at 37 °C. As the final step, the absorbance was measured at 545 nm by using a microplate reader (SPECTROStar Nano, BMG Labtech, Offenburg, Germany). Untreated cells were included as controls. […] These agents were additionally tested against NIH/3T3 fibroblasts to obtain results about their cancer selectivity. Two independent experiments were performed with five wells for each condition. Cisplatin (Ebewe GmbH, Unterach, Austria), a clinically used anticancer agent, was used as a positive control. Calculations were performed utilizing the GraphPad Prism 5.01 software (GraphPad Software Inc., San Diego, CA, USA).

[2] = system: A2780 ovarian cancer cells; test: MTT antiproliferative assay, A2780; type: cell-based, human; settings: Homo sapiens, 72 h, read-out: Growth inhibition (%) ± SEM; for inhibition at 10 µM: A2780, 10 μM; for inhibition at 30 µM: A2780, 30 μM
Method: as §1, §2

[3] = system: HeLa cells (cervical cancer); test: MTT antiproliferative assay, HeLa; type: cell-based, human; settings: Homo sapiens, 72 h, read-out: Growth inhibition (%) ± SEM
Method: as §1, §2

[4] = system: SiHa cells (cervical cancer); test: MTT antiproliferative assay, SiHa; type: cell-based, human; settings: Homo sapiens, 72 h, read-out: Growth inhibition (%) ± SEM
Method: as §1, §2

[5] = DPPH free radical scavenging assay; settings: 0.1 mM DPPH, 30 min, 25 °C
Method: As a consequence, in vitro antioxidant activities of selected N-aliphatic- and N-aryl-substituted aminodiols were determined by 1,1-diphenyl-2-picrylhydrazyl (DPPH) assay.
The antioxidant effects of the aminodiol derivatives were tested on 1,1-diphenyl-2-picrylhydrazyl (DPPH) radicals according to Brand-Williams (1995) [55] and Sánchez-Moreno (2002) [56], with some modifications. […] After a 30 min incubation period at room temperature (25 °C) the absorbances were measured at 517 nm by a microplate reader (SPECTROStar Nano, BMG Labtech, Offenburg, Germany). Trolox (3,4-Dihydro-6-hydroxy-2,5,7,8-tetramethyl-2H-1-benzopyran-2-carboxylic acid) was used as a positive control. All measurements were performed in duplicate with 5 parallels.

With `CCOC(=O)[C@H]1c2c(C)cccc2[C@H]2CC[C@]3(O)C[C@@]21C[C@]3(O)Cn1ccnc1` [Compound 26, Ethyl (4bS,7S,8S,9aR,10R)-8-((1H-imidazol-1-yl)methyl)-7,8-dihydroxy-1-methyl-4b,6,7,8,9,10-hexahydro-5H-7,9a-methanobenzo[a]azulene-10-carboxylate] the inhibition at 10 µM [1] was less than 20%, the inhibition at 30 µM [1] was less than 20% and the melting point was 101 to 103 °C. It also gave an inhibition at 10 µM [2] of less than 20%, an inhibition at 30 µM [2] of less than 20% and an inhibition at 10 µM [3] of less than 20%. For the same molecule, the inhibition at 30 µM [3] was less than 20%, the inhibition at 10 µM [4] was less than 20% and the inhibition at 30 µM [4] was 25.9 ± 2.53%.

`CCOC(=O)[C@H]1c2c(C)cccc2[C@H]2CC[C@]3(O)C[C@@]21C[C@]3(O)Cn1cnc2ccccc21` [Compound 27, Ethyl (4bS,7S,8S,9aR,10R)-8-((1H-benzo[d]imidazol-1-yl)methyl)-7,8-dihydroxy-1-methyl-4b,6,7,8,9,10-hexahydro-5H-7,9a-methanobenzo[a]azulene-10-carboxylate] gave an inhibition at 10 µM [1] of less than 20%, an inhibition at 30 µM [1] of less than 20% and a melting point of 221 to 222 °C. It also gave an inhibition at 10 µM [2] of less than 20%, an inhibition at 30 µM [2] of 28.9 ± 1.27% and an inhibition at 10 µM [3] of less than 20%. The inhibition at 30 µM [3] was 45.5 ± 1.87%, the inhibition at 10 µM [4] was 26.2 ± 0.46% and the inhibition at 30 µM [4] was 44.4 ± 1.84%.

For `CCOC(=O)[C@H]1c2c(C)cccc2[C@H]2CC[C@]3(O)C[C@@]21C[C@]3(O)CNCc1cn(Cc2ccccc2)nn1` [Compound 31, Ethyl (4bS,7S,8S,9aR,10R)-8-((((1-benzyl-1H-1,2,3-triazol-4-yl)methyl)amino)methyl)-7,8-dihydroxy-1-methyl-4b,6,7,8,9,10-hexahydro-5H-7,9a-methanobenzo[a]azulene-10-carboxylate], the inhibition at 10 µM [1] was less than 20%, the inhibition at 30 µM [1] was 50.8 ± 3.01% and the melting point was 122 to 123 °C. For the same molecule, the inhibition at 10 µM [2] was less than 20%, the inhibition at 30 µM [2] was 41.4 ± 1.13% and the inhibition at 10 µM [3] was less than 20%. The inhibition at 30 µM [3] was 40.2 ± 5.59%, the inhibition at 10 µM [4] was less than 20% and the inhibition at 30 µM [4] was 42.9 ± 0.84%.

`CCOC(=O)[C@@H]1c2c(C)cccc2C2CC[C@]3(O)C[C@@]21C[C@]3(O)CN[C@@H](C)c1ccc2ccccc2c1` (stereo partly drawn) [Compound 35, Ethyl (7S,8S,9aR,10S)-7,8-dihydroxy-1-methyl-8-((((S)-1-(naphthalen-2-yl)ethyl)amino)methyl)-4b,6,7,8,9,10-hexahydro-5H-7,9a-methanobenzo[a]azulene-10-carboxylate] gave an inhibition at 10 µM [1] of 29.4 ± 1.66%, an inhibition at 30 µM [1] of 96.81 ± 0.82% and a melting point of 56 to 59 °C. It also gave an inhibition at 10 µM [2] of 42.7 ± 2.63%, an inhibition at 30 µM [2] of 95.4 ± 0.48% and an inhibition at 10 µM [3] of 40.1 ± 1.21%. It also gave an inhibition at 30 µM [3] of 95.9 ± 2.21%, an inhibition at 10 µM [4] of 44.6 ± 0.74% and an inhibition at 30 µM [4] of 98.41 ± 0.74%.

With `CCOC(=O)[C@@H]1c2c(C)cccc2C2CC[C@]3(O)C[C@@]21C[C@]3(O)CNCc1cccc2ccccc12` (stereo partly drawn) [Compound 38, Ethyl (7S,8S,9aR,10S)-7,8-dihydroxy-1-methyl-8-(((naphthalen-1-ylmethyl)amino)methyl)-4b,6,7,8,9,10-hexahydro-5H-7,9a-methanobenzo[a]azulene-10-carboxylate] the inhibition at 10 µM [1] was less than 20%, the inhibition at 30 µM [1] was 96.17 ± 0.76% and the melting point was 61 to 65 °C. For the same molecule, the inhibition at 10 µM [2] was 28.6 ± 2.66%, the inhibition at 30 µM [2] was 95.23 ± 0.66% and the inhibition at 10 µM [3] was 26.9 ± 0.53%. For the same molecule, the inhibition at 30 µM [3] was 96.5 ± 1.72%, the inhibition at 10 µM [4] was 27.9 ± 0.93% and the inhibition at 30 µM [4] was 97.63 ± 0.8%.

With `Cc1c(C)c2c(c(C)c1O)CCC(C)(C(=O)O)O2` (stereo not shown) [Trolox, 3,4-Dihydro-6-hydroxy-2,5,7,8-tetramethyl-2H-1-benzopyran-2-carboxylic acid, reference compound] the IC50 [5] was 20.2 µM.

From paper PMC9499365, “Stereoselective Synthesis and Application of Gibberellic Acid-Derived Aminodiols” (International Journal of Molecular Sciences, 2022)
